Where a name gives a salt, the structure may show the parent alone. Read-outs that look alike come from different tables or passages of the source.
Columns and labels:
[1] = molecular target: PI3Kδ (p110δ/p85α) Recombinant Human Protein (Homo sapiens (Human), UniProt O00329); assay: PI3Kδ scintillation proximity assay; assay type: biochemical; settings: 2 μM ATP, 20 μM PIP2
[2] = tested on: Phosphorylated Ribosomal Protein S6 (RPS6) in THP-1 cells; assay: THP-1 RPS6 ELISA assay; assay type: cell-based, human; settings: 10 nM MCP-1, read-out: PI3Kγ_THP1_RPS6_ELISA IC50
[3] = molecular target: PI3Kγ (p110γ) Recombinant Human Protein (Homo sapiens (Human), UniProt P48736); assay: PI3K-γ scintillation proximity assay; assay type: biochemical; settings: 2 μM ATP, 20 μM PIP2
[4] = Homo sapiens, THP-1, THP-1 cells

Sequence of PI3Kγ (p110γ) Recombinant Human Protein (P48736 whole entry): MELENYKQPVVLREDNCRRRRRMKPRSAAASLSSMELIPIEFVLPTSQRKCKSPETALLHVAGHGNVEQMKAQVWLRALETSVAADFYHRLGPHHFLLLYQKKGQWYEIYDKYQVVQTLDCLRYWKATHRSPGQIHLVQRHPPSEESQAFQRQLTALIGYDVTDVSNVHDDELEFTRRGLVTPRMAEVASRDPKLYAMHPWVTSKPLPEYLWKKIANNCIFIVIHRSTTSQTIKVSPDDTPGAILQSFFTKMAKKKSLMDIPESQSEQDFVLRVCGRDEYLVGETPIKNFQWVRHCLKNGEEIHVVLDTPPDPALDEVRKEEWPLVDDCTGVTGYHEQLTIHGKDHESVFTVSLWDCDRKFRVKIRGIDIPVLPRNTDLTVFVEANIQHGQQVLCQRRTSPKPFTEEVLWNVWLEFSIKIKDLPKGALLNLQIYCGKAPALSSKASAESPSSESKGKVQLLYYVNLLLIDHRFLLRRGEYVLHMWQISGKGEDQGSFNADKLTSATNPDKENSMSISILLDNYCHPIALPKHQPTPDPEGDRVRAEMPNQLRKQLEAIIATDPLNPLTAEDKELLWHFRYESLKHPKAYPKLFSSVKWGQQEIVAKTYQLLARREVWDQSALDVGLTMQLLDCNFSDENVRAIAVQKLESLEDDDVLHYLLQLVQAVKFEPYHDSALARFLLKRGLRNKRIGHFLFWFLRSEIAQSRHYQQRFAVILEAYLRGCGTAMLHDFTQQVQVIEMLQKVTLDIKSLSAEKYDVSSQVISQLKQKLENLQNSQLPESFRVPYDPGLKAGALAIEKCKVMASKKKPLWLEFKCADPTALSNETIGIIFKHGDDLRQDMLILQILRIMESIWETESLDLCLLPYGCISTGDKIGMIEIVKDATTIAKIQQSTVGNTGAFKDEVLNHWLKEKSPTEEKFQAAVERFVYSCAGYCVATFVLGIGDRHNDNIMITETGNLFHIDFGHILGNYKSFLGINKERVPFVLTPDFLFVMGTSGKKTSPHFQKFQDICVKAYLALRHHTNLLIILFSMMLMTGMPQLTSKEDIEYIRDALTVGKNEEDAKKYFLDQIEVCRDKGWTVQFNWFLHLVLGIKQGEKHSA
Sequence of PI3Kδ (p110δ/p85α) Recombinant Human Protein (O00329 whole entry): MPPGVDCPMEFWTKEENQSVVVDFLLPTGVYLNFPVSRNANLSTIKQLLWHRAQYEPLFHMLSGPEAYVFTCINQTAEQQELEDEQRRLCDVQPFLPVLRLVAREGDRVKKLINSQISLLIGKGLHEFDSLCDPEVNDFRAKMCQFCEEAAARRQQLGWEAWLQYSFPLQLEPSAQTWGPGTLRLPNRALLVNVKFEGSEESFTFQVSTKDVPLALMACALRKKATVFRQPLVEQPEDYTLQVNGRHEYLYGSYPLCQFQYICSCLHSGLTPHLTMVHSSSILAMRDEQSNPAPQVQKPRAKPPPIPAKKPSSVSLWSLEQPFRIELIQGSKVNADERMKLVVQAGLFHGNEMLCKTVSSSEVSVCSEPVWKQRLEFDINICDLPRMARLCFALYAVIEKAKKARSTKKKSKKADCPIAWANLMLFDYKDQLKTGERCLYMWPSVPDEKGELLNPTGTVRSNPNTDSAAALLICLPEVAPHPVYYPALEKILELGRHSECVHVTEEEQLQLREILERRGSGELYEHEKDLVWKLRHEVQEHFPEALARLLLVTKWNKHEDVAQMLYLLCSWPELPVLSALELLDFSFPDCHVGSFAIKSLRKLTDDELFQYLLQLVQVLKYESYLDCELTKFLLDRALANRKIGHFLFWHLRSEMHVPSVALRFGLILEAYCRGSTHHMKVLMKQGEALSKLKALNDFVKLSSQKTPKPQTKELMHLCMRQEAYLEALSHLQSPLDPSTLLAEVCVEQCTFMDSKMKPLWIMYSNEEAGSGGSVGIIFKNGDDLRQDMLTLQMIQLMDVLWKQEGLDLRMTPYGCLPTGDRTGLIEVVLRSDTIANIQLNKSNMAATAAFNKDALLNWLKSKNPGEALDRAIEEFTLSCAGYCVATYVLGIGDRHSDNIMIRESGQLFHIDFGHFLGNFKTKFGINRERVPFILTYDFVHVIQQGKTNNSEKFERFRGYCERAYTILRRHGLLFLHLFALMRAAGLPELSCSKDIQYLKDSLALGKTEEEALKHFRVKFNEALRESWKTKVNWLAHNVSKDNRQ
Sequence of PI3Kδ (p110δ/p85α) Recombinant Human Protein (P27986 whole entry partner): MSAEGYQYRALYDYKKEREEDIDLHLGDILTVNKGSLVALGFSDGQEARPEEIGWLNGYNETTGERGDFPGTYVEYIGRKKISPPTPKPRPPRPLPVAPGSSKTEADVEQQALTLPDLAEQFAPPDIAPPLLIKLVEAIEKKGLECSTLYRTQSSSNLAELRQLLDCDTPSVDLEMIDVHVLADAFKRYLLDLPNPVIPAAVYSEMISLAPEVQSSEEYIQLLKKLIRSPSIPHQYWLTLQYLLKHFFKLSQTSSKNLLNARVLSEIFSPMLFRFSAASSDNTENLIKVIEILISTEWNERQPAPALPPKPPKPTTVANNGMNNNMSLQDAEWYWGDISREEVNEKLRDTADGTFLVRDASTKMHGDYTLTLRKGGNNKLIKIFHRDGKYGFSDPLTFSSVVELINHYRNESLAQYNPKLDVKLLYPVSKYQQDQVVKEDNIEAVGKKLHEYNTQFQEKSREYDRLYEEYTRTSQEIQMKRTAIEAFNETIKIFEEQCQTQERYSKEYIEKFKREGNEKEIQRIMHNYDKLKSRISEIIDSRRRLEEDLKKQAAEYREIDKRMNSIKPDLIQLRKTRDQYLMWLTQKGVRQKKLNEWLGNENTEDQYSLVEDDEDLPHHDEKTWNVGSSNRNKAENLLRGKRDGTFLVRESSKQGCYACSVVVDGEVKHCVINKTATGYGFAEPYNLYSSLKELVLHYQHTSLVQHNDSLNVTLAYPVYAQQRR

`CC(NC(=O)c1c(N)nn2cccnc12)c1cc(Cl)c2cncn2c1N1CCC(O)(C(F)(F)F)CC1` (stereo not drawn) [Example 89, 2-Amino-N-(1-(8-chloro-5-(4-hydroxy-4-(trifluoromethyl)piperidin-1-yl)imidazo[1,5-a]pyridin-6-yl)ethyl)pyrazolo[1,5-a]pyrimidine-3-carboxamide trifluroacetate] was tested, and the IC50 [1] was less than 500 nM, the IC50 ([2]; THP-1 cells) was less than 500 nM and the IC50 [3] was less than 100 nM.
`CC(NC(=O)c1c(N)nn2cccnc12)c1cc(Cl)c2cncn2c1N1CCC(O)CC1` (racemic) [Example 146, 2-Amino-N-{1-[8-chloro-5-(4-hydroxypiperidin-1-yl)imidazo[1,5-a]pyridin-6-yl]ethyl}pyrazolo[1,5-a]pyrimidine-3-carboxamide trifluoroacetate salt] gave an IC50 [1] of less than 100 nM, an IC50 [2, 4] of less than 500 nM and an IC50 [3] of less than 100 nM.
`CC(NC(=O)c1c(N)nn2cccnc12)c1cc(Cl)c2cncn2c1N1CCC(F)(F)CC1` (stereo not drawn) [Example 65, 2-Amino-N-{1-[8-chloro-5-(4,4-difluoropiperidin-1-yl)imidazo[1,5-a]pyridin-6-yl]ethyl}pyrazolo[1,5-a]pyrimidine-3-carboxamide bistrifluoroacetate] was tested, and the IC50 [1] was less than 100 nM, the IC50 [2, 4] was less than 500 nM and the IC50 [3] was less than 100 nM.
Work on `CC(NC(=O)c1c(N)nn2cccnc12)c1cc(Cl)c2ccnn2c1N1CCNS(=O)(=O)CC1` (stereo not drawn) [Example 110, 2-Amino-N-{1-[4-chloro-7-(1,1-dioxido-1,2,5-thiadiazepan-5-yl)pyrazolo[1,5-a]pyridin-6-yl]ethyl}pyrazolo[1,5-a]pyrimidine-3-carboxamide trifluoroacetate] yielded an IC50 [1] of less than 100 nM, an IC50 [2, 4] of less than 500 nM and an IC50 [3] of less than 100 nM.
`CC(NC(=O)c1c(N)nn2cccnc12)c1cc(Cl)c2cncn2c1-c1cnn(C)c1` (racemic) [Example 140, 2-Amino-N-{1-[8-chloro-5-(1-methyl-1H-pyrazol-4-yl)imidazo[1,5-a]pyridin-6-yl]ethyl}pyrazolo[1,5-a]pyrimidine-3-carboxamide trifluoroacetate salt] showed an IC50 [1] of less than 100 nM, an IC50 [2, 4] of less than 500 nM and an IC50 [3] of less than 100 nM.
`CC(NC(=O)c1c(N)nn2cccnc12)c1cc(Cl)c2cncn2c1N1CCCC(F)C1` (single isomer, unassigned) [Example 73B, 2-Amino-N-{1-[8-chloro-5-(3-fluoropiperidin-1-yl)imidazo[1,5-a]pyridin-6-yl]ethyl}pyrazolo[1,5-a]pyrimidine-3-carboxamide] gave an IC50 [1] of less than 100 nM, an IC50 ([2]; THP-1 cells) of less than 500 nM and an IC50 [3] of less than 100 nM.
`CC(NC(=O)c1c(N)nn2cccnc12)c1cc(Cl)c2cn[nH]c2c1N1CCC(S(=O)(=O)N(C)C)CC1` (stereo not drawn) [Example 93, 2-Amino-N-[1-(4-chloro-7-{4-[(dimethylamino)sulfonyl]piperidin-1-yl}-2H-indazol-6-yl)ethyl]pyrazolo[1,5-a]pyrimidine-3-carboxamide] gave an IC50 [1] of less than 2000 nM, an IC50 [2, 4] greater than 1000 nM and an IC50 [3] of less than 100 nM.
With `Cc1nc(C(F)(F)F)c2c(Cl)cc(C(C)NC(=O)c3c(N)nn4cccnc34)c(-c3ccccc3)n12` (racemic) [Example 124, 2-Amino-N-{1-[8-chloro-3-methyl-5-phenyl-1-(trifluoromethyl)imidazo[1,5-a]pyridin-6-yl]ethyl}pyrazolo[1,5-a]pyrimidine-3-carboxamide trifluoroacetate salt] the IC50 [1] was no less than 2000 nM, the IC50 [2, 4] was greater than 1000 nM and the IC50 [3] was less than 500 nM.
Work on `CC(NC(=O)c1c(N)nn2cccnc12)c1cc(Cl)c2cncn2c1N1CCCC1` (racemic) [Example 142, 2-Amino-N-[1-(8-chloro-5-pyrrolidin-1-ylimidazo[1,5-a]pyridin-6-yl)ethyl]pyrazolo[1,5-a]pyrimidine-3-carboxamide trifluoroacetate salt] yielded an IC50 [1] of less than 100 nM, an IC50 [2, 4] of less than 500 nM and an IC50 [3] of less than 100 nM.
For `CC(NC(=O)c1c(N)nn2cccnc12)c1cc(Cl)c2cncn2c1N1CCS(=O)(=O)CC1` (stereo not drawn) [Example 36, 2-Amino-N-(1-[8-chloro-5-(1,1-dioxidothiomorpholin-4-yl)imidazo[1,5-a]pyridin-6-yl]ethyl)pyrazolo[1,5-a]pyrimidine-3-carboxamide trifluoroacetate salt], the IC50 [1] was less than 100 nM, the IC50 [2, 4] was less than 500 nM and the IC50 [3] was less than 100 nM.
Work on `C#Cc1nc(C)n2c(-c3ccccc3)c(C(C)NC(=O)c3c(N)nn4cccnc34)cc(Cl)c12` (racemic) [Example 126, 2-Amino-N-[1-(8-chloro-1-ethynyl-3-methyl-5-phenylimidazo[1,5-a]pyridin-6-yl)ethyl]pyrazolo[1,5-a]pyrimidine-3-carboxamide] yielded an IC50 [1] of less than 2000 nM, an IC50 [2, 4] of less than 500 nM and an IC50 [3] of less than 100 nM.
In the case of `CCOc1c(C(C)NC(=O)c2c(N)nn3ccc(-c4cncc(OC)c4)nc23)cc(Cl)c2c(Cl)n[nH]c12` (stereo not drawn) [Example 43, 2-Amino-N-(1-(3,4-dichloro-7-ethoxy-1H-indazol-6-yl)ethyl)-5-(5-methoxypyridin-3-yl)pyrazolo[1,5-a]pyrimidine-3-carboxamide trifluoroacetate salt], the IC50 [1] is reported as less than 100 nM, the IC50 [2, 4] is reported as less than 500 nM and the IC50 [3] is reported as less than 100 nM.
With `Nc1nn2cccnc2c1C(=O)NCc1cc(Cl)c2c(Cl)ncn2c1N1CCCC1` [Example 172, 2-Amino-N-((1,8-dichloro-5-(pyrrolidin-1-yl)imidazo[1,5-a]pyridin-6-yl)methyl)pyrazolo[1,5-a]pyrimidine-3-carboxamidetrifluoroacetate salt] the IC50 [1] was less than 500 nM, the IC50 [2, 4] was less than 1000 nM and the IC50 [3] was less than 100 nM.
In the case of `CC(NC(=O)c1c(N)nn2cccnc12)c1cc(Cl)c2cncn2c1N1CCCC(O)C1` (stereo not drawn) [Example 152, 2-Amino-N-(1-{8-chloro-5-[(3)-3-hydroxypiperidin-1-yl]imidazo[1,5-a]pyridin-6-yl}ethyl)pyrazolo[1,5-a]pyrimidine-3-carboxamide trifluoroacetate salt], the IC50 [1] is reported as less than 100 nM, the IC50 ([2]; THP-1 cells) is reported as less than 500 nM and the IC50 [3] is reported as less than 100 nM.
In the case of `CC(NC(=O)c1c(N)nn2cccnc12)c1cc(Cl)c2cncn2c1N1CCCC(O)(C(F)(F)F)C1` (single isomer, unassigned) [Example 78A, 2-Amino-N-(1-{8-chloro-5-[3-hydroxy-3-(trifluoromethyl)piperidin-1-yl]imidazo[1,5-a]pyridin-6-yl}ethyl)pyrazolo[1,5-a]pyrimidine-3-carboxamide trifluoroacetate], the IC50 [1] is reported as less than 500 nM, the IC50 [2, 4] is reported as less than 500 nM and the IC50 [3] is reported as less than 100 nM.
`CC1CN(c2c(CNC(=O)c3c(N)nn4cccnc34)cc(Cl)c3c(C#N)ncn23)CCS1(=O)=O` (stereo not drawn) [Example 174, 2-Amino-N-((8-chloro-1-cyano-5-(2-methyl-1,1-dioxidothiomorpholino)imidazo[1,5-a]pyridin-6-yl)methyl)pyrazolo[1,5-a]pyrimidine-3-carboxamide trifluoroacetate salt] was tested, and the IC50 [1] was less than 2000 nM, the IC50 [2, 4] was greater than 1000 nM and the IC50 [3] was less than 100 nM.
`CC1CCN(c2c(C(C)NC(=O)c3c(N)nn4cccnc34)cc(Cl)c3cncn23)CC1` (stereo not drawn) [Example 69, 2-Amino-N-{1-[8-chloro-5-(4-methylpiperidin-1-yl)imidazo[1,5-a]pyridin-6-yl]ethyl}pyrazolo[1,5-a]pyrimidine-3-carboxamide bistrifluoroacetate] was tested, and the IC50 [1] was less than 500 nM, the IC50 [2, 4] was less than 1000 nM and the IC50 [3] was less than 100 nM.
Work on `CC(NC(=O)c1c(N)nn2cccnc12)c1cc(Cl)c2cnnn2c1-c1ccccc1` (stereo not drawn) [Example 63, 2-Amino-N-(1-(4-chloro-7-phenyl-[1,2,3]triazolo[1,5-a]pyridin-6-yl)ethyl)pyrazolo[1,5-a]pyrimidine-3-carboxamide trifluoroacetate] yielded an IC50 [1] of less than 500 nM, an IC50 [2, 4] of less than 500 nM and an IC50 [3] of less than 500 nM.
For `Cc1ncc2c(Cl)cc(C(C)NC(=O)c3c(N)nn4cccnc34)c(-c3cnn(C)c3)n12` (racemic) [Example 119, 2-Amino-N-{1-[8-chloro-3-methyl-5-(1-methyl-1H-pyrazol-4-yl)imidazo[1,5-a]pyridin-6-yl]ethyl}pyrazolo[1,5-a]pyrimidine-3-carboxamide trifluoroacetate salt], the IC50 [1] was less than 500 nM, the IC50 [2, 4] was less than 500 nM and the IC50 [3] was less than 100 nM.
With `CC(NC(=O)c1c(N)nn2cccnc12)c1cc(Cl)c2cncn2c1-c1ccccn1` (racemic) [Example 133, 2-Amino-N-[1-(8-chloro-5-pyridin-2-ylimidazo[1,5-a]pyridin-6-yl)ethyl]pyrazolo[1,5-a]pyrimidine-3-carboxamide trifluoroacetate salt] the IC50 [1] was less than 500 nM, the IC50 [2, 4] was less than 500 nM and the IC50 [3] was less than 100 nM.
Compound `CC(NC(=O)c1c(N)nn2cccnc12)c1cc(Cl)c2cncn2c1-c1cncc(C#N)c1` (racemic) [Example 137, 2-Amino-N-{1-[8-chloro-5-(5-cyanopyridin-3-yl)imidazo[1,5-a]pyridin-6-yl]ethyl}pyrazolo[1,5-a]pyrimidine-3-carboxamide trifluoroacetate salt] has an IC50 [1] of less than 100 nM, an IC50 [2, 4] of less than 500 nM and an IC50 [3] of less than 100 nM.
`CC(NC(=O)c1c(N)nn2cccnc12)c1cc(Cl)c2cncn2c1N1CCCC(C)(C#N)C1` (single isomer, unassigned) [Example 77A, 2-Amino-N-{1-[8-chloro-5-(3-cyano-3-methylpiperidin-1-yl)imidazo[1,5-a]pyridin-6-yl]ethyl}pyrazolo[1,5-a]pyrimidine-3-carboxamide trifluroacetate] was tested, and the IC50 [1] was less than 500 nM, the IC50 [2, 4] was less than 500 nM and the IC50 [3] was less than 100 nM.
Compound `CC(NC(=O)c1c(N)nn2cccnc12)c1cc(Cl)c2c(Cl)cnn2c1N1CCS(=O)(=O)CC1` (stereo not drawn) [Example 113, 2-Amino-N-{1-[3,4-dichloro-7-(1,1-dioxidothiomorpholin-4-yl)pyrazolo[1,5-a]pyridin-6-yl]ethyl}pyrazolo[1,5-a]pyrimidine-3-carboxamide trifluoroacetate] has an IC50 [1] of less than 100 nM, an IC50 [2, 4] of less than 500 nM and an IC50 [3] of less than 100 nM.

Reference: patent US10065963B2 (Incyte Corporation, priority 2015, dated 2018)
